The results in this text go back to publication PMC9014415, “Repositioning of a Diaminothiazole Series Confirmed to Target the Cyclin-Dependent Kinase CRK12 for Use in the Treatment of African Animal Trypanosomiasis” (Journal of Medicinal Chemistry, 2022).

For experiment [1], the system named is bloodstream T. brucei resistant lines R1-R3. The experiment is described as follows: Sensitivity of compound 2-resistant T. brucei lines compared to wild-type. The format is cell-based, Trypanosoma brucei. The procedure:
To gain further insight into the molecular target(s) of this series, resistance was generated against compound 2 in a drug-sensitive clonal line of bloodstream T. brucei. Trypanosomes were cultured in the continuous presence of compound 2 for a total of 122 days. […] Following drug selection, resistant parasites were cloned by limiting dilution. The relative sensitivities of these cloned cell lines were established and compared to that of wild-type parasites. Resistant lines R1 and R3 were 10-fold resistant, while R2 was 90-fold resistant to compound 2 (Figure 4A). […] In addition, all three clones had lost a significant part of chromosome 10 and gained additional copies of a region of chromosome 8. All three resistant lines carried a mutation in Tb927.4.4590, a gene encoding a non-essential putative kinase and in Tb927.11.10300, encoding a hypothetical protein. Of particular note, all three clones (R1–3) shared a non-synonymous substitution (Gly492Ala) in Tb927.11.12310, the gene encoding CRK12. In addition, R2 harbored a second non-synonymous substitution (Leu482Phe) in CRK12 (Table S10). […]
in cattle). Blood from the donor animals, diluted with phosphate buffered glucose was used to infect recipient animals IV via the jugular vein. Infection was with approximately 100,000 fresh viable parasites. The compounds were given IM. Each injection was up to 10 mL and given in neck in the following order: left anterior third, right anterior third, left posterior third and right posterior third.
Animals over 240 kg required a fifth injection site for the IVP, and this was given in the left or right hind leg. Cattle were randomised to treatments. Parasitaemia was monitored 3 times per calendar week, though collection of blood and assessment of clinical symptoms. Blood samples were also […]
treatment). Cattle were also monitored for PCV, clinical symptoms, body weight and temperature […]
4. Mode of action studies
4.1 Resistant line generation […]
Sequencing reads (100 bp) were aligned to the Trypanosoma brucei TREU927 genome (v39; tritrypDB) using Bowtie210 and Samtools11 software. […]

For experiment [2], the system named is T. brucei CRK12 (Tb927.11.12310) edited parasites. The experiment is described as follows: Sensitivity of CRISPR-Cas9-edited CRK12 T. brucei compared to wild-type. The format is cell-based, Trypanosoma brucei. The text has this:
Three unbiased and independent approaches converged to identify CRK12 as the likely target of compound 2. Next, we used CRISPR-Cas9 precision base editing to interrogate the role of CRK12-related mutations in resistance.[16] A codon-targeted saturation mutagenesis strategy was used to investigate mutations that could support resistance to compound 2 at positions 482 or 492. This was achieved using repair templates randomized (NNN) in these specific positions. […] These edited parasites were 133-fold less sensitive to compound 2 compared to wild-type parasites. In contrast, several different amino acids (Ile, Gln, Met, and Val) were tolerated in position 492. Each mutation conferred differing levels of resistance to compound 2, for instance, parasites bearing a Gly492Val edit were eightfold more tolerant to the compound than wild-type cells, while a Gly492Gln mutation led to 32-fold resistance (Figure 4B); parasites bearing a Gly492Ile or a Gly492Met edit behaved similarly to parasites bearing a Gly492Gln edit. […] This is most likely explained by the pronounced growth defect associated with all three of our resistant clones (R1–3) that harbor this specific mutation. […]
overall quality score (QUAL) was >100. Artemis13 was used to analyse chromosome and gene copy number variation (CNV), as well as visualisation of SNPs.
4.3 RIT-seq screening, Illumina sequencing and analysis
The RIT-seq library screening was performed as described previously.14 The RNAi library was maintained with blasticidin (1 µg ml-1) and phleomycin (1 µg ml-1) at a minimum of 2 x 10^7 cells. […]
Reads were mapped to the T. brucei 927 reference genome (v39; TriTrypDB [http://tritrypdb.org/]) using Bowtie 2 software,10 with the following parameter: --very-sensitive-local. Following manipulation with SAMtools11 the alignment files were searched with a custom script to identify reads with the following barcode: GCCTCGCGA.14 The total and barcoded reads were then quantified using the Artemis genome browser.15 […]

Take `CC(C)CS(=O)(=O)N[C@H]1CC[C@H](Nc2nc(N)c(C(=O)c3c(F)cc(CN(C)C)cc3F)s2)CC1` [Compound 2, N-(trans)-[4-[[4-Amino-5-[4-(dimethylaminomethyl)-2,6-difluoro-benzoyl]thiazol-2-yl]amino]cyclohexyl]-2-methyl-propane-1-sulfonamide]: the “Resistance compared to wild-type” value is recorded as 10 fold in experiment [1] (resistant line R1), 90 fold in experiment [1] (resistant line R2), 10 fold in experiment [1] (resistant line R3) and 32 fold in experiment [2] (CRK12 Gly492Gln edit). Moreover, the “Tolerance compared to wild-type” value in experiment [2] (CRK12 Gly492Val edit) is “eightfold”. Further, the “Loss of sensitivity compared to wild-type” value in experiment [2] (CRK12 Leu482Phe edit) came out at 133 fold.
